Source: patent US6080780A, “Use of nitroflavonoids for the treatment of anxiety” (University of Strathclyde, priority 1995, dated 2000)
Like-named read-outs stand apart in the source and are kept apart here.

Key:
[1] = target: benzodiazepine (BDZ-R) receptor; assay: 3H-Flunitrazepam binding to extensively washed bovine cerebral cortical membranes; details: read-out: Ki, inhibition of 3H-FNZ binding; bovine cerebral cortical membranes; 0.6 nM 3H-FNZ, 4° C., 60 min; n=3
Description: Non-specific nitration of the flavone nucleus yielded the two nitrated flavone (II) and (IIa). […] Briefly, ^3 H-FNZ binding was carried out as described by Levy de Stein, M., Medina, J. H., De Robertis E., Mol. Brain Res. 1985, 5, 9-15. In brief, for each assay, triplicate samples of the membranes, containing 0.2 to 0.4 mg protein were suspended in a final volume of 1 mL of 0.25 mM Tris-HCl buffer, pH 7.3. The incubation was carried out at 4° C. for 60 minutes with 0.6 nM ^3 -FNZ. To study the binding saturation, a range of 0.3 to 10 nM ^3 H-FNZ was used. Non-specific binding was determined in parallel incubations in the presence of 3 μM FNZ, and represented 5-15% of total. The assays were terminated by filtration under vacuum though Whatman GF/A glass-fiber filters, and three washes with 3 mL each of incubation medium. Filters were dried and counted after the addition of 5 mL of 2,5-diphenyloxazole/xylene as scintillation fluid. Bovine cerebral cortical membranes were treated substantially following the method of Medina, J. H., De Robertis, E. J., J. Neurochem. 1985, 44, 1340-1345.

[2] = target: central benzodiazepine receptors (BDZ-Rs); assay: 3H-FNZ binding to rat brain synaptosomal membranes (Section 3)
Description: In brief, for each assay, triplicate samples of the membranes, containing 0.2 to 0.4 mg protein were suspended in a final volume of 1 mL of 0.25 mM Tris--HCl buffer, pH 7.3. The incubation was carried out at 4° C. for 60 min with 0.6 nM ^3 H--FNZ. to study the binding saturation, a range of 0.3 to 10 nM ^3 H--FNZ was used. […] The assays were terminated by filtration under vacuum through Whatman GF/A glass-fiber filters, and three washes with 3 mL each of incubation medium. Filters were dried and counted after the addition of 5 mL of 2,5-diphenyloxazole/xylene as scintillation fluid.
The binding of ^3 H--FNZ was carried out as for (i) above.

[3] = target: central benzodiazepine receptor; assay: [3H]-FNZ binding to crude synaptosomal membranes from rat CNS regions; design: species or system rat (Wistar)
Description: (§1) Adult male Wistar rats weighing 250 g were used for biochemical experiments. Adult male Swiss male weighing 25-30 g were used for pharmacological assays except for inhibitory avoidance and tail flick tests were done in rats. Animals were housed in a controlled environment, with free access to food and water and maintained on a 12 h/12 h day/night cycle.
Displacement curves were performed using [^3 ]-FNZ or [^3 H]-zolpidem ([^3 H]-ZOLP) as radioligands in washed crude synaptosomal membranes from rat cerebral cortex, cerebellum, hippocampus, striatum or spinal cord. Membrane preparations were carried out according to Medina et al. (1990). Briefly, brains were rapidly dissected out on ice and the different structures were homogenized in 10 volumes of 0.32 M sucrose and centrifuged at 900×g for 10 min. The resulting supernatant was centrifuged at 100,000×g for 30 min and the pellet washed twice in 25 mM Tris HCl buffer pH 7.4 at 100,000×g for 30 min, and stored at -20° C. until used.
For [^3 H]-FNZ (84 Ci/mmol, NEN) displacement curves, different concentrations of DNF (0.3 nM to 1 μM) were added to 0.3 mg membrane protein suspended in 1 ml of 25 mM Tris HCl buffer in presence of 0.6 nM of the radioligand. Protein determination was carried out by using the method of Lowry et al. (1951). Nonspecific binding (<5%) was determined in parallel incubations with 10 μM FNZ (Hoffmann-La Roche). The incubation was carried out at 4° C. for 2 h. The assays were determined by filtration under vacuum through Whatman GF/A glass fiber filters, and two washes with 3 ml each of incubation medium. Filters were dried and counted after the addition of 5 ml 2,5-diphenyl-oxazole (PPO)-xylene as scintillation fluid.

GABAA receptors = assay: 3H-muscimol binding, compound (IV); details: 10 μM
AMPA-glutamate receptors = assay: 3H-AMPA binding, compound (IV); details: 10 μM
[4] = test system: cholinergic-muscarinic receptors; format: binding; details: 10 μM
serotonin 1A receptors = assay: 3H-8-OH-DPAT binding, compound (IV); details: 10 μM
mice [5] = assay: Elevated plus-maze, compound (IV); format: in vivo, male Swiss mice; details: i.p., 0.1 mg/kg, preliminary
Description: The animals used in the pharmacological test were male Swiss mice from our breeding stock, weighting 28-35 g. They were placed in groups of ten with free access to water and food, and maintained on 12 h/12 h day/night cycle. The elevated plus-maze set-up consisted of a maze of two open arms, 25×5 cm, crossed by two closed arms of the same dimensions, with free access to all arms from the crossing point. The closed arms had walls 35 cm high all around. The maze was suspended 50 cm from the room floor. Mice were placed on the central part of the cross facing an open arm. The number of entries and the time spend going into open and closed arms were counted during 5 min. A selective increase in the parameters corresponding to open arms revels an anxiolytic effect. The total exploratory activity (number of entries in both arms) was also determined according to the method of Pellow, S. J. et al. Neurosci. Meth. 1986, 14, 149; Lister, R. G. Psychopharmacology 1987, 92, 180).

mice [6] = assay: Elevated plus-maze test in mice (Section 1, incl. Table 1); format: in vivo, male Swiss mice; details: Mus musculus, ip, read-out: minimum dose necessary to produce similar anxiolytic effects
Description: Performance of mice on the elevated plus-maze test was used to measure anxiolytic actions in rodents, following i.p. administration of vehicle or compound (II).
The animals used in the pharmacological test were male Swiss mice from breeding stock, weighing 28-35 g. They were placed n groups of ten with free access to water and food, and maintained on 12 h/12 h day/night cycle. In all the tests the mice were i.p. injected with VEH or a solution of the drug, 15 minutes before the assay.
The elevated plus-maze set-up consisted of a maze of two open arms, 25×5 cm, crossed by two closed arms of the same dimensions, with free access to all arms from the crossing point. The closed arms had walls 35 cm high all around. The maze was suspended 50 cm from the room floor. Mice were placed on the central part of the cross facing an open arm. The number of entries and the time spent going into open and closed arms were counted during 5 minutes. […] The total exploratory activity (number of entries in both arms) was also determined.

mice [7] = assay: Elevated plus maze test in mice (Section 2); format: in vivo, male Swiss mice; details: mice
Description: as §1
An Opto-varimex® apparatus was used according to Viola et al. (1994). The apparatus discriminates between total and ambulatory activities. An increase in the number of transitions through the beams reflects augmented locomotor activity. In this and all following tests in mice, animals were i.p. injected with the vehicle, or with DNF 20 min before the beginning of the tests. In each session, control mice were tested in parallel with those animals receiving drug treatment.
The test was performed in the same session immediately after the locomotor activity measurement (Viola et al., 1994; Wolfman et al., 1994). […] A series of experiments with the injection of the selective central benzodiazepine receptor antagonist Ro 15-1788 (File and Pellow, 1986) was also carried out.

mice [8] = assay: Holeboard test in mice; format: in vivo, male Swiss mice; details: mice, 1 mg/kg; vehicle=8.5±1.2, p<0.001
Description: as §1
The test was performed according to Viola et al. (1994) and Wolfman et al. (1994). The number of head dips and the time spent head dipping were counted during 5 min.

mice [9] = assay: Horizontal wire test in mice; format: in vivo, male Swiss mice; details: mice, i.p.
Description: as §1
This test was carried out as previously described (Viola et al., 1994; Wolfman et al., 1994; Viola et al., 1995). The test took place after two trials, performed at 5 min intervals. A myorelaxant drug will impair mice to grasp the wire (Bonetti et al., 1982). The effect of DNF )1 mg/kg) on DZ-induced myorelaxation was also determined.

mice [10] = assay: Pentylenetetrazole (PTZ)-induced seizures; format: in vivo
Description: The effects of DNF on pentylenetetrazole (PTZ)--induced convulsions were evaluated according to Medina et al., (1990) with slight modifications. PTZ (200 mg/kg) was administered i.p. to mice 15 min after injection of drug or vehicle. The number of mice presenting clonic convulsions was determined.
Data are expressed as the percentage of mice presenting clonic or tonic-clonic seizures. ^3 number of animals per group.

[11] = rat cerebral cortex, read-out: Ki, 3H-FNZ binding

Compound: O=c1cc(-c2ccc([N+](=O)[O-])cc2)oc2ccc([N+](=O)[O-])cc12 [(IIa), 6,4'-Dinitroflavone]
- Ki [1]: 17000 ± 5000 nM

Compound: O=c1cc(-c2cccc([N+](=O)[O-])c2)oc2ccc(F)cc12 [(IX), 6-Fluoro-3'-nitroflavone]
- Ki [2, 11]: 170 nM

Compound: O=c1cc(-c2cccc([N+](=O)[O-])c2)oc2ccccc12 [(VI), 3'-nitroflavone]
- Ki [2, 11]: 250 nM

Compound: O=c1cc(-c2cccc([N+](=O)[O-])c2)oc2ccc(Cl)cc12 [(VIII), 6-Chloro-3'-nitroflavone]
- Ki [2, 11]: 8 nM

Compound: Cc1nnc2ccc(-c3cccc(C(F)(F)F)c3)nn12 [CL 218,872, reference compound]
- Ki ([3]; cortical membranes, high affinity site, read-out: high affinity Ki value): 10 nM
- Ki ([3]; cortical membranes, low affinity site, read-out: low affinity Ki value): 1200 nM

Compound: O=c1cc(-c2ccccc2[N+](=O)[O-])oc2ccc(Br)cc12 [Compound (III), 6-bromo-2'-nitroflavone]
- Ki [2, 11]: 208 nM

Compound: O=c1cc(-c2cccc([N+](=O)[O-])c2)oc2ccc(Br)cc12 [Compound (IV), 6-bromo-3'-nitroflavone]
- Ki ([2]; cerebellum, n=4, read-out: Ki SEM, 3H-FNZ binding): 3.6 ± 0.1 nM
- Ki ([2]; cerebral cortex, first (high affinity) population of sites, n=6, read-out: Ki SEM, 3H-FNZ binding): 1.2 nM
- Ki ([2]; cerebral cortex, second population of sites, n=6, read-out: Ki SEM, 3H-FNZ binding): 15.5 nM
- Scatchard analysis of 3H-FNZ saturation curves ([2]; cerebral cortical membranes, data not shown): competitive ligand for the BDZ-R
- Ki ([2]; hippocampus, n=2, read-out: Ki SEM, 3H-FNZ binding): 9.6 ± 0.6 nM
- Ki [2, 11]: 220 ± 1 nM
- affinity in spinal cord vs highest value in cerebral cortex ([2]; ratio): 10 times lower
- potency for displacement of 3H-FNZ, type II BDZ-R regions vs cerebellum ([2]; ratio): 3-4 times lower
- Ki ([2]; spinal cord, n=3, read-out: Ki SEM, 3H-FNZ binding): 12.7 ± 0.5 nM
- Ki ([2]; striatum, n=3, read-out: Ki SEM, 3H-FNZ binding): 9.8 ± 1.6 nM
- displacement of [3H]-muscimol binding (GABAA receptors): does not displace
- displacement of 3H-AMPA binding (AMPA-glutamate receptors): does not displace
- displacement of 3H-QNB binding [4]: does not displace
- displacement of 3H-8-OH-DPAT binding (serotonin 1A receptors): does not displace
- percentage of entries in the open arms (mice [5]): increasing both the percentage of entries in the open arms
- time spent in the open arms (mice [5]): increasing both the percentage of entries in the open arms and the time spent in these arms

Compound: O=c1cc(-c2ccc([N+](=O)[O-])cc2)oc2ccc(Br)cc12 [Compound (V), 6-bromo-4'-nitroflavone]
- Ki [2, 11]: 220 nM

Compound: CN1C(=O)CN=C(c2ccccc2)c2cc(Cl)ccc21 [Diazepam, reference compound]
- minimal effective dose (mice [6]): 0.03 mg/kg
- Ki ([3]; all the brain regions studied, read-out: Ki, [3H]-FNZ binding): ~7 nM
- dose needed to increase open arm entries relative to DNF (mice [7]): 10-100 times higher
- percentage of open arm entries (mice [7]; 0.3 mg/kg, vehicle=22.9±2.0%, p<0.05): 35.0±4.5%
- head dips (mice [8]): 1.2±0.5
- myorelaxant effect (mice [9]; 1 mg/kg): marked myorelaxant effect
- animals showing myorelaxant effect (mice [9]; DZ 1 mg/kg): 8 animals out of 10
- % of convulsing mice (mice [10]; DZ 0.3 mg/kg, n=6, p<0.001 (VEH + PTZ 96)): 33.3%
- % of convulsing mice (mice [10]; DZ 1.0 mg/kg, n=12, p<0.001): 42%
- % of convulsing mice (mice [10]; DZ 3.0 mg/kg, n=9, p<0.001): 0%
- anticonvulsant activity vs PTZ (mice [10]; mice, 0.3-3 mg/kg, p<0.001, PTZ 200 mg/kg): showed anticonvulsant activity
